Laboratory results taken from patent US20070299109A1, “Dimeric Compounds Of Piperidine, Piperazine Or Morpholine Or Their 7-Membered Analogs Suitable For The Treatment Of Neurodegenerative Disorders” (priority 2004, published 2007).

The molecules below were run on chicken dorsal root ganglion neurons (assay: Neuronal viability assay (calcein-AM) in primary culture of chicken dorsal root ganglion neurons). Settings: Gallus gallus, DRG neuron, 48 h; survival of chick DRG neurons after two days of incubation; 0% = no neurotrophic factor, 100% = 10 ng/ml NGF; read-out: [C1] DRG assay SCORE (pIC50 value scored) (converted).
Format: cell-based, White Leghorn chick embryos
Description: This assay is based on a fluorimetric Calcein-AM measurement and addresses the functional response of neurons as a quantitative measure of survival.
Dorsal root ganglia were dissected from White Leghorn chick embryos at embryonic day 10 as described previously (Skaper S. D. and Varon S. (1986) Brain Research 389, 39-46). The ganglia were trypsinised and dissociated by mild trituration in a HBSS buffer supplemented with 0.6% glucose and 0.08% trypsin. To remove non-neuronal cells by differential attachment to culture plastic, the ganglionic cell suspension was lo diluted to 2.5×10^5 cells/ml and seeded on tissue culture plastic dishes at 10 ml per 100 mm dish. After 2 h preplating, unattached neurons were collected and resuspended into Basal Eagle Medium containing 10% FCS. To remove cell aggregates, the cell suspension was passed through a nylon mesh (50 μM) pore diameter. Neuron-enriched cell suspension was plated at 5×10^4 cells/ml into poly-L-ornithine (100 μg/ml) and laminine (1 μg/ml) coated multiwell 96 plates. Compounds were dissolved in dimethyl sulfoxide and kept as a stock at −20° C. NGF and compounds were diluted in the culture medium and added to the cells immediately after plating. The final concentration of dimethyl sulfoxide in the test medium was 0.1%. After two days of incubation, neuronal viability was assessed with calcein-AM.
Neuronal viability assay using calcein AM was performed as previously described (Bozyczko-Coyne D., McKenna B. W., Connors T. J., and Neff N. T. (1993) Journal of Neuroscience Methods 50, 205-216). For the assay, calcein-AM was diluted in PBS to the final concentration (1 μM). […] Following the incubation, reading was done in a Cytofluor II at an excitation wavelength of 485 nm and an emission wavelength of 530 nm. […]
The drugs to be tested were taken from a stock solution and tested at a final concentration ranging from […] to 3.10^−9M. From the thus obtained dose response curves, the pIC50 value was calculated and scored as follows; Score 1=pIC50 value<6, Score 2=pIC50 value in the range of 6 to 8, Score 3=pIC50 value>8.

Compound	IC50 [nM]
CN(c1nc2ccc(F)cc2s1)C1CCN(C(=O)CCCCCCCC(=O)N2CCC(N(C)c3nc4ccc(F)cc4s3)CC2)CC1 [Compound 5]	10 to 1000
CN(c1nc2ccccc2s1)C1CCN(C(=O)NC2CCC(CC3CCC(NC(=O)N4CCC(N(C)c5nc6ccccc6s5)CC4)CC3)CC2)CC1 (stereo not drawn) [Compound 9]	10 to 1000
c1ccc2c(c1)CCN2C1CCN(CCCN2CCC(N3CCc4ccccc43)CC2)CC1 [Compound 47]	> 1000
